In patent publication US12532889B2, “Herbicidal compositions comprising glufosinate” (BASF SE, priority 2023, dated 2026):

Tests used:
Experiment in all cases: Post-emergence application in field trials (Example A)
Format in all cases: in vivo
[1] = system: DIGHO (Digitaria horizontalis); details: Table 1.4, DIGHO growth stage 24, 14 DAT, water 200 l/ha
Procedure, shortened: (§1)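 Weeds in field plots (natural infestation or seeded) are treated after emergence. Damage is then assessed at set days after treatment relative to untreated plants, scored 0–100%. Mixture values are compared with Colby-expected additive activity E.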

[2] = system: CYPES (Cyperus esculentus); details: 21 DAT, water 140 l/ha
Procedure, shortened: as §1

[3] = system: POLCO (Polygonum convolvulus); details: Table 3.2, A-1 12.5, B-2 500 g ai/ha, 14 DAT, water 100 l/ha
Procedure, shortened: as §1

CYPIR (Cyperus iria) = details: Table 2.1, CYPIR growth stage 13-14, height 3-5 cm, 14 DAT, water 300 l/ha
Procedure, shortened: as §1

AVESG (Avena strigosa) = details: Table 1.6; AVESG growth stage 11-21, height 5-10 cm; A-1 25, B-2 400 g ai/ha; 14 DAT; water 200 l/ha
Procedure, shortened: as §1

ERISS (Erigeron sp.) = details: Table 1.8, ERISS height 30-50 cm, 14 DAT, water 200 l/ha
Procedure, shortened: as §1

IPOTR (Ipomoea triloba) = details: 21 DAT
Procedure, shortened: as §1

AVEFA (Avena fatua) = details: Table 3.1; AVEFA growth stage 22-24, height 18-29 cm; A-1 12.5, B-2 500 g ai/ha; 28 DAT; water 100 l/ha
Procedure, shortened: as §1

CNDSS (Conyza sp.) = details: Table 1.5; CNDSS growth stage 26-59, height 15-55 cm; A-1 50, B-2 600 g ai/ha; 14 DAT; water 200 l/ha
Procedure, shortened: as §1

[4] = system: BRAPL (Brachiaria plantaginea); details: BRAPL growth stage 24, A-1 50, B-2 400 g ai/ha, water 200 l/ha
Procedure, shortened: as §1

[5] = system: AMAPA (Amaranthus palmeri); details: Table 1.27, AMAPA height 30 cm, 21 DAT, water 200 l/ha
Procedure, shortened: as §1

GALAP (Galium aparine) = details: Table 3.1; GALAP growth stage 11-16, height 2-20 cm; A-1 18, B-2 500 g ai/ha; 28 DAT; water 100 l/ha
Procedure, shortened: as §1

[6] = system: BOILF (Spermacoce latifolia); details: Table 1.16, A-1 25, B-2 400 g ai/ha, 21 DAT, water 200 l/ha
Procedure, shortened: as §1

[7] = system: CYPKH (Cyperus kyllingia var. humilis); details: Table 5.4; CYPKH growth stage 76-77, height 13-14 cm; A-1 25, B-6 252 g ai/ha; 28 DAT; water 400 l/ha
Procedure, shortened: as §1

[8] = system: AMASP (Amaranthus spinosus); details: Table 5.5; AMASP growth stage 72; A-1 25, B-6 252 g ai/ha; 28 DAT; water 400 l/ha
Procedure, shortened: as §1

[9] = system: SETPA (Setaria palmifolia); details: Table 5.3; SETPA growth stage 76-77; A-1 25, B-6 252 g ai/ha; 28 DAT; water 300 l/ha
Procedure, shortened: as §1

[10] = system: COMDI (Commelina diffusa); details: Table 5.3; COMDI growth stage 76-77; A-1 25, B-6 252 g ai/ha; 28 DAT; water 300 l/ha
Procedure, shortened: as §1

[11] = system: SETVE (Setaria verticillata); details: 42 DAT, growth stage 21-23, height 8-16 cm
Procedure, shortened: as §1

[12] = system: PASSC (Paspalum scrobiculatum); details: Table 5.2, A-1 25, B-6 252 g ai/ha, 21 DAT, water 450 l/ha
Procedure, shortened: as §1

GLXMA (Glycine max) = details: 21 DAT, growth stage 13, height 5-10 cm
Procedure, shortened: as §1

CYNDA (Cynodon dactylon) = details: A-1 25, B-6 252 g ai/ha, 28 DAT, water 400 l/ha
Procedure, shortened: as §1

[13] = Table 4.2, A-1 25, B-2 655 g ai/ha
[14] = Table 4.2, A-1 50, B-2 655 g ai/ha
[15] = Table 1.11, A-1 25, B-2 400 g ai/ha, water 100 l/ha
[16] = Table 1.16, A-1 25, B-2 400 g ai/ha, water 200 l/ha
[17] = Table 5.4, CYNDA growth stage 76-77, height 15-16 cm
[18] = Table 5.5, CYNDA growth stage 72

Row | Structure (SMILES) | % herbicidal activity ([1]; A-1 25, B-2 400 g ai/ha) [%] | % herbicidal activity ([1]; A-1 50, B-2 400 g ai/ha) [%] | % herbicidal activity [2, 13] [%] | % herbicidal activity [2, 14] [%] | % herbicidal activity [3] [%] | % herbicidal activity (CYPIR (Cyperus iria); A-1 12.5, B-2 500 g ai/ha) [%] | % herbicidal activity (CYPIR (Cyperus iria); A-1 25, B-2 500 g ai/ha) [%] | % herbicidal activity (AVESG (Avena strigosa)) [%] | % herbicidal activity (ERISS (Erigeron sp.); A-1 25, B-2 400 g ai/ha) [%] | % herbicidal activity (ERISS (Erigeron sp.); A-1 50, B-2 400 g ai/ha) [%] | % herbicidal activity (IPOTR (Ipomoea triloba); [15]) [%] | % herbicidal activity (IPOTR (Ipomoea triloba); [16]) [%] | % herbicidal activity (AVEFA (Avena fatua)) [%] | % herbicidal activity (CNDSS (Conyza sp.)) [%] | % herbicidal activity ([4]; Table 1.18, 21 DAT) [%] | % herbicidal activity ([4]; Table 1.4, 14 DAT) [%] | % herbicidal activity ([5]; A-1 12.5, B-2 400 g ai/ha) [%] | % herbicidal activity ([5]; A-1 25, B-2 400 g ai/ha) [%] | % herbicidal activity (GALAP (Galium aparine)) [%] | % herbicidal activity [6] [%] | other results
1 | CP(=O)(O)CCC(N)C(=O)O (stereo not drawn) [B-2, glufosinate-ammonium] | 30 | 30 | 18 | 18 | 28 | 77 | 77 | 83 | 40 | 40 | 60 | 68 | 68 | 90 | 18 | 55 | 20 | 20 | 27 | 73 | 
2 | CCOC(=O)COc1ccccc1Oc1nc(-n2c(=O)cc(C(F)(F)F)n(C)c2=O)c(F)cc1Cl [A-1, ethyl 2-[2-[[3-chloro-5-fluoro-6-[3-methyl-2,6-dioxo-4-(trifluoromethyl)pyrimidin-1-yl]-2-pyridyl]oxy]phenoxy]acetate] | 57 | 65 | 22 | 42 | 90 | 30 | 60 | 78 | 13 | 18 | 85 | 82 | 70 | 72 | 42 | 85 | 70 | 85 | 79 | 72 | % herbicidal activity [7]: 61%; % herbicidal activity [8]: 84%; % herbicidal activity [9]: 65%; % herbicidal activity [10]: 60%; % Herbicidal activity ([11]; A-1 12.5 g ai/ha): 60%; % herbicidal activity ([11]; A-1 18 g ai/ha): 50%; % herbicidal activity [12]: 22%; % herbicidal activity (GLXMA (Glycine max); A-1 12.5 g ai/ha): 90%; % herbicidal activity (CYNDA (Cynodon dactylon); [17]): 53%; % herbicidal activity (CYNDA (Cynodon dactylon); [18]): 72%
3 | CP(=O)(O)CC[C@H](N)C(=O)O.N [B-6, glufosinate-P-ammonium] |  |  |  |  |  |  |  |  |  |  |  |  |  |  |  |  |  |  |  |  | % herbicidal activity [7]: 48%; % herbicidal activity [8]: 84%; % herbicidal activity [9]: 32%; % herbicidal activity [10]: 39%; % Herbicidal activity ([11]; B-6 252 g ai/ha): 60%; % herbicidal activity ([11]; B-6 252 g ai/ha): 35%; % herbicidal activity [12]: 27%; % herbicidal activity (GLXMA (Glycine max); B-6 252 g ai/ha): 70%; % herbicidal activity (CYNDA (Cynodon dactylon); [17]): 88%; % herbicidal activity (CYNDA (Cynodon dactylon); [18]): 86%
